# From paper PMC12627862, “Therapeutic targeting of endothelial calcium signaling accelerates the resolution of lung injury” (Signal Transduction and Targeted Therapy, 2025)
# Starred links: 1 amine or outer side, 2 acyl side, 3 side chain; linkers in the order of their positions; H or OH if unused. Non-standard residues stand in square brackets, D forms with d. Residues, ends and D or L forms follow the SMILES beside them. ξ: configuration not given here. Oic = O=C(O)[C@@H]1C[C@@H]2CCCC[C@@H]2N1; GABOB(3R) = O=C(C[C@@H](O)CN[*:1])[*:2]; tBuAla = CC(C)(C)C[C@H](N)C(=O)O; ξVal(3-OH) = CC(C)(O)C(N)C(=O)O; 4Amb = NCc1ccc(C(=O)O)cc1
# Key:
# full-length EB3 = full-length EB3 (Homo sapiens, UniProt Q9UPY8); experiment: STD-NMR binding to EB3 (amplification factor); conditions: versus the linear precursor
# Sequence of full-length EB3 (Q9UPY8 whole entry, species assumed): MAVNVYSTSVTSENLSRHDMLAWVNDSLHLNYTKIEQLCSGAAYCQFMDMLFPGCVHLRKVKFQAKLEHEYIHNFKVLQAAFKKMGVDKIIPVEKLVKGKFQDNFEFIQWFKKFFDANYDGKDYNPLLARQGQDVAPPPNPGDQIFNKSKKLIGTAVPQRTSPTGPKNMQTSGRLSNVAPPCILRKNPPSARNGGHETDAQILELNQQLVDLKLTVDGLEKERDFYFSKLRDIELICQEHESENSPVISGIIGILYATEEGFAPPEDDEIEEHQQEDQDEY
# Excerpt: To screen these drug-like compounds for binding to full-length EB3, we employed the saturation transfer difference (STD)-NMR approach as a cell-free throughput screening platform. We were unable to use other methods, such as isothermal titration calorimetry, because of the nature of the EB3 dimer, which dynamically exchanges chains within the dimer—a process influenced by the binding of the C-terminus to its partners, such as the tested peptides. To analyze the STD-NMR data quantitatively, we established the amplification factor (AMPSTD), a change in signal intensity upon saturation that is normalized to ligand abundance (Fig. 1a), as a measure of the binding affinity of the compounds to the target protein EB3. […]
# Fig. 1 NMR-based characterization of EB3 inhibitors. a The saturation transfer difference (STD) NMR approach was used to profile peptide binding to EB3. […] The amplification ratio was calculated as follows: AMPSTD = ISTD/INO SAT x {L}, where ISTD is the highest STD signal intensity measured with saturation; INO SAT is the intensity measured for the same signal without saturation; and {L} is the peptide concentration. c ^1H-^15N HSQC spectrum of ^15N-enriched EB3_200-281 alone (black) and in the presence of a 1:1 molar ratio of 109 (cyan). […]
# [1] = tested on: CD-1 mice subjected to mechanical ventilation; experiment: High tidal volume mechanical ventilation (VILI); type: in vivo, mouse; conditions: HVMV 40 mL/kg bw for 2 hours; i.v. 2 µmol/kg bw
# Excerpt: Severely ill ARDS patients undergo intubation and are placed on a mechanical ventilator to maintain adequate oxygen levels in the body[42]. This supportive intervention can have detrimental effects on the lungs, leading to diffuse ventilator-induced lung injury (VILI) in the regions exposed to the highest pressure. Furthermore, VILI primarily targets alveolar epithelial cells, in contrast to indirect models of ARDS, such as endotoxemia and sepsis, where systemic inflammation predominantly injures the pulmonary endothelial barrier. Thus, as a part of a safety study, we investigated the effects of VT-109 on the pathogenesis of VILI. Mice that received vehicle or VT-109 at the most efficacious dose of 2 µmol/kg bw were subjected to high-volume mechanical ventilation (HVMV) at 40 mL/kg bw for 2 hours, and albumin extravasation was measured to determine VILI-induced vascular leakage (Fig. 4g, h).
# Mice intubated with a 20-gauge catheter were ventilated using a Harvard Apparatus ventilator (Harvard Bioscience) with high tidal volumes of 40 mL/kg body weight, a respiratory rate of 80 breaths per minute, and no positive end-expiratory pressure (PEEP) for 2 hours to induce ventilator-induced lung injury (VILI). Intravenous treatment with 250 nmol/kg bw VT-109 was administered at the onset of HVMV. Mice breathing spontaneously were used as experimental control.
# Pseudomonas aeruginosa = experiment: I.t. P. aeruginosa-induced pneumonia; type: in vivo, mouse
# Excerpt: Most ARDS cases arise secondary to pneumonia, in which infectious agents directly target the alveolar epithelium. Damage to these epithelial cells disrupts the integrity of the alveolar–capillary barrier, leading to protein-rich pulmonary edema and widespread inflammation, two hallmark features of diffuse alveolar damage. Because endothelial barrier disruption is a downstream consequence in this context, we also evaluated the benefits of VT-109 treatment in a model of Pseudomonas aeruginosa–induced lung injury, the most commonly acquired hospital-associated pneumonia. Mice were infected with a sublethal intratracheal dose of 5 × 10^5 CFU Pseudomonas aeruginosa and treated with a moderately efficacious dose of VT-109 (250 nmol/kg bw) at 5 hours post-challenge. The lung tissues were collected at 24 and 48 hours for histopathological analysis of acute lung injury, neutrophil influx, and bacterial counts in BALF (Fig. 5k–n and Supplementary Fig. 4j).
# Mice (CD1) were anesthetized by intraperitoneal injection of xylazine and positioned supine on a sterile surgical surface. A small midline incision was made in the neck to expose the trachea. GFP-expressing Pseudomonas aeruginosa (PA) was cultured overnight in LB broth supplemented with carbenicillin (100 µg/mL). A total volume of 30 µL PBS containing 0.5 × 10⁶ colony-forming units (CFU) was injected directly into the trachea using a sterile 28G insulin syringe. Following intratracheal instillation, mice received VT-109 (250 nmol/kg body weight) or vehicle by IV at 5- and 24-hours post-infection. Lung tissues were collected at 24 and 48 hours to assess treatment effects. The left lung was inflated with fixative and harvested for histological analysis, while the right lung was collected for bacterial quantification. For CFU analysis, the right lung was homogenized in 1 mL of sterile PBS using a bead-based tissue homogenizer. Homogenates were serially diluted and plated on LB agar containing carbenicillin (100 µg/mL). Plates were incubated overnight at 37 °C, and CFUs were counted the following day. […]
# SARS-CoV-2 (WA1/2020) = type: in vivo, mouse
# in vitro [2] = conditions: rat, plasma
# Method: (§1) Stability assay of peptides in blood plasma of rodents, dogs, and humans. For the plasma stability assay, 5 μM of each peptide was incubated with species-specific plasma for 120 minutes and samples were taken at the required time points. Positive control used were molecules with known stability: enalapril, propantheline, and warfarin. The amount of test compound remaining at each time point was analyzed by LC-MS/MS. Appropriate control compounds for each species were also incubated.
# in vitro [3] = conditions: mouse, plasma
# Method: as §1
# in vitro [4] = conditions: dog, plasma
# Method: as §1
structure (smiles),measurement,setting,value
"CC(C)(C)C[C@@H]1NC(=O)C[C@@H](O)CNC(=O)[C@@H]2C[C@@H]3CCCC[C@@H]3N2C(=O)[C@H](CC(C)(C)C)NC(=O)c2ccc(cc2)CNC(=O)C(C(C)(C)O)NC(=O)[C@@H](Cc2ccccc2)NC1=O (stereo partly drawn) [compound 109, (1^2S,1^3aS,1^7aS,3S,10S,13R,16S,20R)-13-benzyl-20-hydroxy-10-(2-hydroxypropan-2-yl)-3,16-dineopentyl-1^2,1^3,1^3a,1^4,1^5,1^6,1^7,1^7a-octahydro-1^1H-4,8,11,14,17,22-hexaaza-1(1,2)-indola-6(1,4)-benzenacyclotricosaphane-2,5,9,12,15,18,23-heptaone.] (cyclo([4Amb][tBuAla][Oic][GABOB(3R)][tBuAla][dF][ξVal(3-OH)]))",improvement of EB3 binding by head-to-tail cyclization,full-length EB3,approximately 4 fold
same,VILI-induced vascular albumin leakage,[1],markedly reduced leakage
same,recruitment of neutrophils (MPO levels in the lung tissues),[1],prevented
same,neutrophils in the lung tissues,"Pseudomonas aeruginosa; 5 × 10^5 CFU i.t., 250 nmol/kg bw at 5 hours post-challenge, 24 and 48 hours",far fewer neutrophils
same,lung injury (histopathology),"Pseudomonas aeruginosa; 5 × 10^5 CFU i.t., 250 nmol/kg bw, 24 and 48 hours",appeared uninjured
same,bacterial counts,"Pseudomonas aeruginosa; both time points, did not reach statistical significance",modest reduction
same,lung injury (ALI score),SARS-CoV-2 (WA1/2020); 250 nmol/kg bw from 1 dpi,promoted the resolution of lung injury by day 7
same,NFATC2 nuclear accumulation in endothelial and immune cells,"SARS-CoV-2 (WA1/2020); 250 nmol/kg bw, 7 dpi",reduced NFATC2 nuclear accumulation
same,VE-cadherin junctions,"SARS-CoV-2 (WA1/2020); 250 nmol/kg bw, 7 dpi",reannealed junctions
same,number of infiltrating monocytes and neutrophils in the BALF,SARS-CoV-2 (WA1/2020); 2 µmol/kg bw i.v.,significantly reduced
same,"blood-brain barrier (BBB) integrity, cerebral cortex","SARS-CoV-2 (WA1/2020); 2 µmol/kg bw i.v., 5 dpi",restored BBB integrity
same,half-life at 5 μM,in vitro [2],4.88 h
same,"remaining at 2 h, 5 μM",in vitro [2],76.5%
same,half-life at 5 μM,in vitro [3],> 8 h
same,"remaining at 2 h, 5 μM",in vitro [3],89.8%
same,half-life at 5 μM,in vitro [4],> 8 h
same,"remaining at 2 h, 5 μM",in vitro [4],91.9%
